From patent US20080125424A1, “Derivatives of urea and related diamines, methods for their manufacture, and uses therefor” (priority 2006, published 2008) come the findings set out here.

In the assay the target is T1, human parathyroid cell Ca2+ receptor (hPCaR) (Homo sapiens, UniProt P41180).
T1 construct: expressed in transfected cells
T1 sequence (P41180 20-1078): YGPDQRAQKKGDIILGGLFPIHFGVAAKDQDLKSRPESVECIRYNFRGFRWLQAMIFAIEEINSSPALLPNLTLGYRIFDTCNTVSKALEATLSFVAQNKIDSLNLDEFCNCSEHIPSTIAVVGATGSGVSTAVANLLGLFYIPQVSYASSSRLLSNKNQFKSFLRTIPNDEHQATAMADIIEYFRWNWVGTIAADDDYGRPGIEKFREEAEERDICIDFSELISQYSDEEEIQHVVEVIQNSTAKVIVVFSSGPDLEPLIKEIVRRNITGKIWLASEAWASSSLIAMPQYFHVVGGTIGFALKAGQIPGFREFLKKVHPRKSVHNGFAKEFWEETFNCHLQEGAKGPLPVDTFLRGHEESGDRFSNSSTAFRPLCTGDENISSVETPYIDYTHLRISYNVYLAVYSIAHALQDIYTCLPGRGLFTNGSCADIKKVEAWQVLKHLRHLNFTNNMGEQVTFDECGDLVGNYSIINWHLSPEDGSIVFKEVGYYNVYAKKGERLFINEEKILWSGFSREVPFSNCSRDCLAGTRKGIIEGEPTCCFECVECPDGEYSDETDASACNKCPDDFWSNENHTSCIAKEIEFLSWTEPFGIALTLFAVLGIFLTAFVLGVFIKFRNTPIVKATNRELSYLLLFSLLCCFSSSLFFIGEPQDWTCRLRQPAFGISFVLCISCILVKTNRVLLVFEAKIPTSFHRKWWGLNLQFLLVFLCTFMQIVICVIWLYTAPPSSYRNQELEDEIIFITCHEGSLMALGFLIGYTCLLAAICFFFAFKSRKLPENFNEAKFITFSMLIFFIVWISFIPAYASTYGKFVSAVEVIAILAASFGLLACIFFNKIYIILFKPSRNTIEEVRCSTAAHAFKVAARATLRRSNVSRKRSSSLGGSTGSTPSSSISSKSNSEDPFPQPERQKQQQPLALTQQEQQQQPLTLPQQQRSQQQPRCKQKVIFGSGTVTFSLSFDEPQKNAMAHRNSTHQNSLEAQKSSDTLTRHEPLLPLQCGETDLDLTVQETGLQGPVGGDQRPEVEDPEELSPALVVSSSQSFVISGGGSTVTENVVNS
The assay can be described thus: [Ca2+]i fluorescence assay in HEK 293 4.0-7 cells expressing hPCaR. The format is cell-based. To be noted: buffer with 1 mM CaCl2. The procedure: The activities of the compounds of the present invention on calcium receptors were measured. In one embodiment, the measurement was performed in accordance with the method described in Example 4 of Nemeth et al., PCT/US95/13704 (International Publication No. WO96/12697) herein incorporated by reference.
A 4.0-kb NotI-HindIII fragment of the human parathyroid cell Ca^2+ receptor (hPCaR) cDNA was subcloned into the mammalian expression vector pCEP4 (Invitrogen) containing the hygromycin-resistant gene as a selectable marker. This plasmid was transfected into HEK 293 cells by calcium phosphate precipitation. Transfected cells were grown in Dulbecco's modified Eagle's medium containing 10% fetal bovine serum and hygromycin (200 μg/mL). Hygromycin-resistant colonies were subcloned and assayed for hPCaR mRNA by solution hybridization using a ^32P-labeled RNA probe complementary to the (4.0 kb) hPCaR sequence (Garrett, et al., J. Biol. Chem. 270, 12919-12925 (1995)). Clone 7 was used to assess the effects of compounds on [Ca^2+]i. This stably transfected cell line was termed HEK 293 4.0-7. For measurements of [Ca^2+]i, the cells were recovered from tissue culture flasks by brief treatment with Versene (Invitrogen; Containing 0.2 g/L EDTA.4Na in phosphate-buffered saline) and then seeded in collagen coated 384-well plates (BD Biosciences) at 20K cells per well in the growth media (same as above). Cells were grown in 37c TC incubator overnight. Then, the media was discarded and cells were loaded with 1× dye from Ca^2+ Assay Kit I (BD Biosciences) in parathyroid cell buffer (126 mM NaCl, 4 mM KCl, 1 mM MgSO4, 0.7 mM K2HPO4/KH2PO4, 20 mM HEPES.NaOH (pH 7.45)) containing 0.5% BSA and 1 mM CaCl2. Cells were loaded at room temperature for 90 minutes. Each test compound was added to the cells and the fluorescence was recorded by using excitation and emission wavelengths of 485 and 530 nm, respectively.
A word on the EC50: it is the concentration at which the effect is half-maximal. In turn, `O=C(CCCN(CCC(c1ccccc1)c1ccccc1)C(=O)Nc1nc2ccccc2s1)N[C@@H]1CCCNC1` [Example 71, (R)-3-(benzo[d]thiazol-2-yl)-1-(3,3-diphenylpropyl)-1-(4-oxo-4-(piperidin-3-ylamino)butyl)urea] came in with an EC50 of less than 100 nM.

In turn, `CS(=O)(=O)Nc1ccc(-c2nc(NC(=O)N(CCO)CCC(c3ccccc3)c3ccccc3)sc2Cl)cc1` [Example 133, 3-(5-chloro-4-(4-(methylsulfonamido)phenyl)thiazol-2-yl)-1-(3,3-diphenylpropyl)-1-(2-hydroxyethyl)urea] displayed an EC50 of less than 100 nM.

On to `CS(=O)(=O)Nc1ccc(-c2nc(NC(=O)N(CCC(=O)O)CCC(c3ccccc3)c3ccccc3)sc2Cl)cc1` [Example 98, 3-(3-(5-chloro-4-(4-(methylsulfonamido)phenyl)thiazol-2-yl)-1-(3,3-diphenylpropyl)ureido)propanoic acid], for which the EC50 lay within 100 to 1000 nM.

In turn, `CCNC(=O)CCCN(CCC(c1ccccc1)c1ccccc1)C(=O)Nc1nc2ccccc2s1` [Example 85, 3-(benzo[d]thiazol-2-yl)-1-(3,3-diphenylpropyl)-1-(4-(ethylamino)-4-oxobutyl)urea] showed an EC50 of less than 100 nM.

Turning to `CC(C)N1CCN(C(=O)CCCN(CCC(c2ccccc2)c2ccccc2)C(=O)Nc2nc3ccccc3s2)CC1` [Example 118, 3-(benzo[d]thiazol-2-yl)-1-(3,3-diphenylpropyl)-1-(4-(4-isopropylpiperazin-1-yl)-4-oxobutyl)urea], the EC50 fell in the range of 100 to 1000 nM.

Molecule `C[C@@H]1CNCCN1C(=O)CCN(CCC(c1ccccc1)c1ccccc1)C(=O)Nc1nc2ccccc2s1` [Example 120, (R)-3-(benzo[d]thiazol-2-yl)-1-(3,3-diphenylpropyl)-1-(3-(2-methylpiperazin-1-yl)-3-oxopropyl)urea] gave an EC50 of 1000 to 5000 nM.

`O=C(CCCN(CCC(c1ccccc1)c1ccccc1)C(=O)Nc1nc2ccccc2s1)N1CCNCC1` [Example 82, 3-(benzo[d]thiazol-2-yl)-1-(3,3-diphenylpropyl)-1-(4-oxo-4-(piperazin-1-yl)butyl)urea] returned an EC50 of less than 100 nM.

Consider `COC(CNCCN(CCC(c1ccccc1)c1ccccc1)C(=O)Nc1nc2ccccc2s1)OC` [Example 153, 3-Benzothiazol-2-yl-1-[2-(2,2-dimethoxy-ethylamino)-ethyl]-1-(3,3-diphenyl-propyl)urea], for which the EC50 was 100 to 1000 nM.

Take `CSCCCN(CCC(c1ccccc1)c1ccccc1)C(=O)Nc1nc(-c2ccc(NS(C)(=O)=O)cc2)c(Cl)s1` [Example 138, 3-(5-chloro-4-(4-(methylsulfonamido)phenyl)thiazol-2-yl)-1-(3,3-diphenylpropyl)-1-(3-(methylthio)propyl)urea]: the EC50 is less than 100 nM.

In the case of `CS(=O)(=O)Nc1ccc(-c2csc(NC(=O)N(CCC(=O)O)CCC(c3ccccc3)c3ccccc3)n2)cc1` [Example 113, 3-(1-(3,3-diphenylpropyl)-3-(4-(4-(methylsulfonamido)phenyl)thiazol-2-yl)ureido)propanoic acid], the EC50 was 100 to 1000 nM.

`O=C(CCN(CCC(c1ccccc1)c1ccccc1)C(=O)Nc1nc(-c2ccccc2)cs1)N[C@H]1CCCNC1` [Example 93, (S)-1-(3,3-diphenylpropyl)-1-(3-oxo-3-(piperidin-3-ylamino)propyl)-3-(4-phenylthiazol-2-yl)urea]: the EC50 lay in the range of 100 to 1000 nM.

In turn, `C[C@@H]1CNCCN1C(=O)CCCN(CCC(c1ccccc1)c1ccccc1)C(=O)Nc1nc(-c2ccccc2)cs1` [Example 91, (R)-1-(3,3-diphenylpropyl)-1-(4-(2-methylpiperazin-1-yl)-4-oxobutyl)-3-(4-phenylthiazol-2-yl)urea] yielded an EC50 of 100 to 1000 nM.

On to `COc1ccc(CNCCN(CCC(c2ccccc2)c2ccccc2)C(=O)Nc2nc3ccccc3s2)cn1` [Example 154, 3-Benzothiazol-2-yl-1-(3,3-diphenyl-propyl)-1-{2-[(6-methoxy-pyridin-3-ylmethyl)amino]-ethyl}-urea], for which the EC50 lay within 100 to 1000 nM.

On to `CC(C)(C)OC(=O)N1CCC(C(=O)NCCN(CCC(c2ccccc2)c2ccccc2)C(=O)Nc2nc3ccccc3s2)CC1` [Example 165, 4-{2-[3-Benzothiazol-2-yl-1-(3,3-diphenyl-propyl)-ureido]-ethylcarbamoyl}-piperidine-1-carboxylic acid tert-butyl ester], for which the half-maximal effective concentration (EC50) was in the range of 100 to 1000 nM.

Regarding `O=C(O)CN1CCC(NCCN(CCC(c2ccccc2)c2ccccc2)C(=O)Nc2nc3ccccc3s2)CC1` [Example 162, (4-{2-[3-Benzothiazol-2-yl-1-(3,3-diphenyl-propyl)-ureido]-ethylamino}-piperidin-1-yl)acetic acid], the half-maximal effective concentration (EC50) was less than 100 nM.

In turn, `CN1CCN(C(=O)CCCN(CCC(c2ccccc2)c2ccccc2)C(=O)Nc2nc3ccccc3s2)CC1` [Example 108, 3-(benzo[d]thiazol-2-yl)-1-(3,3-diphenylpropyl)-1-(4-(4-methylpiperazin-1-yl)-4-oxobutyl)urea] showed an EC50 of 100 to 1000 nM.

As for `C[C@H]1CNCCN1C(=O)CCN(CCC(c1ccccc1)c1ccccc1)C(=O)Nc1nc2ccccc2s1` [Example 123, (S)-3-(benzo[d]thiazol-2-yl)-1-(3,3-diphenylpropyl)-1-(3-(2-methylpiperazin-1-yl)-3-oxopropyl)urea], the concentration for a half-maximal effect (EC50) was 1000 to 5000 nM.

`CC(CN(CCC(c1ccccc1)c1ccccc1)C(=O)Nc1nc2ccccc2s1)C(=O)O` (stereo not drawn) [Example 122, 3-(3-(benzo[d]thiazol-2-yl)-1-(3,3-diphenylpropyl)ureido)-2-methylpropanoic acid] yielded an EC50 of 1000 to 5000 nM.

`O=C(NCCCCN(CCC(c1ccccc1)c1ccccc1)C(=O)Nc1nc2ccccc2s1)C1CCNCC1` [Example 127, 3-(benzo[d]thiazol-2-yl)-1-(3,3-diphenylpropyl)-1-(4-(piperidine-4-carboxamido)butyl)urea] showed an EC50 of less than 100 nM.

Molecule `O=C(Nc1nc2ccccc2s1)N(CCNC1CCNCC1)CCC(c1ccccc1)c1ccccc1` [Example 143, 3-(benzo[d]thiazol-2-yl)-1-(3,3-diphenylpropyl)-1-(2-(piperidin-4-ylamino)ethyl)urea] gave an EC50 of less than 100 nM.

Molecule `CC(C)(C)OC(=O)N1CCN(C(=O)CCCN(CCC(c2ccccc2)c2ccccc2)C(=O)Nc2nc(-c3ccccc3)cs2)CC1` [Example 96, tert-butyl 4-(4-(1-(3,3-diphenylpropyl)-3-(4-phenylthiazol-2-yl)ureido)butanoyl)piperazine-1-carboxylate] returned an EC50 of 100 to 1000 nM.

Take `CN(C)C(=O)N1CCN(C(=O)CCCN(CCC(c2ccccc2)c2ccccc2)C(=O)Nc2nc3ccccc3s2)CC1` [Example 87, 3-(benzo[d]thiazol-2-yl)-1-(4-(4-(dimethylcarbamoyl)piperazin-1-yl)-4-oxobutyl)-1-(3,3-diphenylpropyl)urea]: the EC50 was less than 100 nM.

`O=C(NCCN(CCC(c1ccccc1)c1ccccc1)C(=O)Nc1nc2ccccc2s1)C1CCCNC1` (stereo not drawn) [Example 129, 3-(benzo[d]thiazol-2-yl)-1-(3,3-diphenylpropyl)-1-(2-(piperidine-3-carboxamido)ethyl)urea]: the EC50 is less than 100 nM.

For the molecule `C[C@@H]1CN(C(=O)CCCN(CCC(c2ccccc2)c2ccccc2)C(=O)Nc2nc(-c3ccccc3)cs2)CCN1` [Example 99, (R)-1-(3,3-diphenylpropyl)-1-(4-(3-methylpiperazin-1-yl)-4-oxobutyl)-3-(4-phenylthiazol-2-yl)urea], the EC50 fell in the range of 100 to 1000 nM.
